According to patent US20110207689A1, “THE TREATMENT OF HEARING LOSS” (Auckland UniServices Limited, priority 2008, published 2011):
Counter-ions that a name gives are not always drawn.

Key:
[1] = system: rats exposed to broad band noise for 24 hours at 110 dBSPL; test: ABR after broad band noise, adenosine receptor agonists delivered onto the round window membrane (Experiment 3); assay type: in vivo, Wistar rats; conditions: for post-treatment ABR thresholds for clicks and pure tones: 48 hours after administration to the RWM, CGS-21680 200 μM; for post-treatment ABR thresholds for clicks and pure tones / ABR threshold recovery for clicks: adenosine 10 mM; for post-treatment ABR thresholds for clicks and pure tones / ABR threshold recovery for pure tones (up to) / ABR threshold recovery for clicks: CCPA 1 mM; for ABR threshold recovery for pure tones (up to) / ABR threshold recovery for clicks: single dose onto RWM 6 hours after noise, ABR 48 hours after treatment; for ABR threshold recovery for pure tones (up to): adenosine 10 mM (16 kHz)
Method: ABRs were measured in response to auditory clicks (a) and pure tones (b-e) before noise exposure (baseline), 30 minutes after noise exposure (pre-treatment) and 48 hours after administration of adenosine receptor agonists (post-treatment). All drugs were delivered onto the cochlear round window membrane (f) Threshold recovery is defined as ABR post-treatment minus ABR pre-treatment. Data are expressed as means±SEM (n=8). *p<0.05; **p<0.01; ***p<0.001; one way ANOVA with Tukey's multiple comparison test. AP, artificial perilymph (control); adenosine (10 mM), non-selective adenosine receptor agonist; CCPA (1 mM), selective A1 adenosine receptor agonist; CGS-21680 (0.2 mM), selective A2A receptor agonist.
Rats were exposed to a broadband noise presented for 24 hours at 90, 100, or 110 dBSPL. Noise exposures were carried out in a custom-built acoustic chamber (Shelburg Acoustics, Sydney, Australia) with internal speakers and external controls (sound generator and frequency selector). The sound levels in the cage were measured using a calibrated Rion NL-49 sound level meter to ensure minimal deviations of sound intensity. The animals had free access to food and water during the exposure.
Auditory thresholds in noise-exposed animals were measured using auditory brainstem responses (ABR), which represent the sound evoked potentials from the auditory nerve and brainstem auditory nuclei. ABR measurements were recorded at least 24 hours prior to noise exposure (baseline) and then 30 min after noise exposure (pre-treatment). Adenosine receptor agonists or vehicle control were then delivered to the cochlear round window (around 6 hours post-noise) and ABR measurement was then repeated 48 hours after drug administration (post-treatment). ABR measurements were performed in a sound attenuator chamber (Shelburg Acoustics, Sydney, Australia). The rats were anesthetized with ketamine (75 mg/kg) and xylazine (10 mg/kg) and their body temperature was maintained at 38° C. with a heating pad as described. ABRs were obtained by placing fine platinum electrodes subdermally at the mastoid region of the ear of interest (active electrode), scalp vertex (reference) and mastoid region of the opposite ear (ground electrode). A series of auditory clicks or pure tones (4-28 kHz) presented at varying intensity and thresholds generated electrical activity reflecting differing levels of auditory processing. The sound threshold of the ABR complex (waves I-IV) were determined by progressively attenuating the sound intensity until the waveform was no longer observed. The acoustic stimuli for ABR were produced, and the responses, recorded, using a Tucker-Davis Technologies auditory physiology workstation (Alachua, Fla., USA) controlled by computer-based digital signal processing package and software (BioSig, Alachua, Fla., USA). ABR potentials were evoked with digitally produced 5 ms tone pips (0.5 ms rise-fall time) at frequencies between 4 and 28 kHz in half-octave steps. Sound pressure level (SPL) was raised in 5 dB steps starting from 10 dB below threshold level to 90 dB SPL. Responses were averaged at each sound level (1024 repeats with stimulus polarity alternated), and response waveforms were discarded when peak-to-peak amplitude exceeded 15 μV (artefact reject). The ABR threshold was defined as the lowest intensity (to the nearest 5 dB) at which a response could be visually detected above the noise floor. The animals were euthanised after hearing assessment and the cochleae collected for immunohistochemical assessment of free radical damage.
Six hours after exposure to broad band noise (110 dBSPL for 24 hours), adenosine receptor agonists were delivered to the round window membrane (RWM) in the left cochlea, whilst the contralateral ear served as untreated control. […]

[2] = system: inner hair cell receptor potential; test: Summating potential (SP) thresholds during cochlear perfusion, ambient noise levels; assay type: in vivo, Wistar rats; conditions: for effect on SP thresholds: RWM perfusion 90 minutes, adenosine 10 mM, CCPA 1 mM, rats at ambient noise
Method: SP thresholds, representing the inner hair cell receptor potential, were measured at frequencies ranging from 4-26 kHz prior to perfusion of artificial perilymph (AP; baseline), after AP perfusion and after perfusion with adenosine receptor agonists adenosine and CCPA. Data presented as mean±SEM (n=8). *p<0.05 **p<0.01, one way ANOVA with Tukey's multiple comparison test. AP, artificial perilymph (control); adenosine (10 mM), non-selective adenosine receptor agonist; CCPA (1 mM), selective A1 adenosine receptor agonist; CGS-21680 (0.2 mM), selective A2A receptor agonist; SCH-58261, selective A2A receptor antagonist.
(§1) As a foundation for the noise studies and to determine the general effect of selective adenosine receptor agonists on the cochlea, auditory function was first evaluated in control animals using the summating potential (SP; measure of the inner hair cell receptor potential) and the compound action potential (CAP; measure of the neural afferent output). This was undertaken to determine the background influence of adenosine receptor activation in the normal cochlea as a platform for the studies in noise-exposed animals.
Animals were anaesthetized (sodium pentobarbital; 60 mg/kg i.p.) and placed on a thermostatically regulated blanket connected to a remote homeothermal control unit (Harvard Apparatus, Holliston, Mass., USA) to maintain stable body temperature (37.5° C.) via a rectal thermocouple probe (Harvard Apparatus). The head of the animal was placed on a heated (38° C. surface temperature) stereotaxic head-holder, connected to a heat block temperature controller (Bio-Medical Engineering Services, University of Auckland, New Zealand). The animals were artificially ventilated and the auditory bulla was exposed using a ventrolateral approach. The perfusion line was inserted close to the round window membrane (RWM). The RWM was perfused with test solutions containing A1, or A2A adenosine receptor agonists at […] using a Harvard Apparatus Series PHD 22/2000 syringe pump. Adenosine receptor agonists adenosine (10 mM), CCPA (1 mM), CGS-21680 (200 μM), alone or in combination with adenosine receptor antagonist SCH-58261 (200 μM), were perfused for 90 minutes. Sound-evoked cochlear responses (CAP and SP) to pure tone stimuli (4-28 kHz) were recorded from a silver wire electrode placed onto the cochlear round window. These responses were measured using a Tucker-Davis System II for the presentation of tone stimuli and acquisition of the electrical potentials via a Grass P16 Pre-amplifier.

[3] = system: nitrotyrosine immunoreactivity in the noise-exposed cochlea; test: Nitrotyrosine immunohistochemistry, semi-quantitative, noise-exposed cochleae treated topically (Experiment 3); assay type: in vivo, Wistar rats; conditions: middle turn, adenosine 10 mM or CCPA 1 mM onto RWM, p<0.01
Description: No immunostaining was detected when the nitrotyrosine antibody was omitted. (B). Semi-quantitative analysis of nitrotyrosine immunoreactivity. Abbreviations: cc, Claudius cells; dc, Deiters' cells; hc, Hensen's cells; idc, interdental cells; is, inner sulcus cells; ihc, inner hair cells; ohc, outer hair cells; opc, outer pillar cells. Scale bars: 50 μm. Data are expressed as means±SEM (n=4 animals per group). **p<0.01; ***p<0.001; one way ANOVA with Tukey's multiple comparison test.
Nitrotyrosine formation in the noise-exposed cochlea was assessed by immunohistochemistry. […] Immunoperoxidase reaction was detected using a secondary biotin-conjugated goat anti-rabbit IgG, followed by reaction visualisation using an avidin-biotin-peroxidase complex (ABC kit, Vector Laboratories) and diaminobenzidine (DAB kit, Vector). […] Images were analyzed using identical acquisition parameters and immunolabeling was semi-quantified using ImageJ software (v.1.38x, NIH, USA). […] Regions of interest were selected and their immunostaining intensity histograms obtained and expressed as mean pixel intensity after greyscale conversion. Between 15 and 32 images of the middle cochlear turn were analyzed in each group (n=4 animals per group) in a double-blind manner.

noise-exposed cochlea = conditions: pre-treatment (prophylactic), reference [6], cited from earlier work
[4] = system: neural afferent output of the cochlea; test: Compound action potential (CAP) thresholds during cochlear perfusion, ambient noise levels; assay type: in vivo, Wistar rats; conditions: RWM perfusion; data not shown
Description: as §1
Animals were anaesthetized (sodium pentobarbital; 60 mg/kg i.p.) and placed on a thermostatically regulated blanket connected to a remote homeothermal control unit (Harvard Apparatus, Holliston, Mass., USA) to maintain stable body temperature (37.5° C.) via a rectal thermocouple probe (Harvard Apparatus). The head of the animal was placed on a heated (38° C. surface temperature) stereotaxic head-holder, connected to a heat block temperature controller (Bio-Medical Engineering Services, University of Auckland, New Zealand). […] Sound-evoked cochlear responses (CAP and SP) to pure tone stimuli (4-28 kHz) were recorded from a silver wire electrode placed onto the cochlear round window. These responses were measured using a Tucker-Davis System II for the presentation of tone stimuli and acquisition of the electrical potentials via a Grass P16 Pre-amplifier.

Row | SMILES | post-treatment ABR thresholds for clicks and pure tones [1] | ABR threshold recovery for pure tones (up to) [1] | ABR threshold recovery for clicks [1] | effect on SP thresholds [2] | reduction of nitrotyrosine mean pixel intensity compared to AP control [3] | other results
1 | OC[C@H]1O[C@@H](n2cnc3c(NC4CCCC4)nc(Cl)nc32)[C@H](O)[C@@H]1O [CCPA, 2-Chloro-N^6-cyclopentyladenosine] | markedly improved ABR thresholds | up to 20 dB | 20 dB | did not affect SP thresholds | 22-45% | 
2 | CCNC(=O)[C@H]1O[C@@H](n2cnc3c(N)nc(NCCc4ccc(CCC(=O)O)cc4)nc32)[C@H](O)[C@@H]1O [CGS-21680, 2-p-(2-Carboxyethyl)phenethylamino-5′-N-ethylcarboxamidoadenosine hydrochloride hydrate] | remained unchanged |  |  |  |  | threshold recovery ([1]; CGS-21680 200 μM onto RWM 6 hours after noise, FIG. 11(f)): did not affect threshold recovery; reduction of SP thresholds ([2]; at 16 kHz, CGS-21680 200 μM RWM perfusion, p<0.01): 5 dB
3 | C[C@H](Cc1ccccc1)Nc1ncnc2c1ncn2[C@@H]1O[C@H](CO)[C@@H](O)[C@H]1O [R-PIA, R—N6-phenylisopropyladenosine] |  |  |  |  |  | survival of the outer hair cells (noise-exposed cochlea): increased survival of the outer hair cells; preservation of auditory thresholds (noise-exposed cochlea; topical to RWM): better preservation of auditory thresholds
4 | Nc1nc2c(cnn2CCc2ccccc2)c2nc(-c3ccco3)nn12 [SCH-58261, 7-(2-phenylethyl)-5-amino-2-(2-furyl)-pyrazolo-[4,3-e]-1,2,4-triazolo[1,5-c]pyrimidine] |  |  |  |  |  | effect on the CGS-21680 reduction of SP thresholds ([2]; SCH-58261 200 μM in combination with CGS-21680): inhibited
5 | Nc1ncnc2c1ncn2[C@@H]1O[C@H](CO)[C@@H](O)[C@H]1O [adenosine] | markedly improved ABR thresholds | up to 19 dB | 18 dB | did not affect SP thresholds | 30-42% | effect on CAP thresholds [4]: not altered
